Experimental data published in US11998539B2, “Substituted aminoquinolones as DGKalpha inhibitors for immune activation” (Bayer Aktiengesellschaft, priority 2019, dated 2024).

Target: DGKα (Homo sapiens (Human), UniProt P23743)
Experiment: Human DGKα kinase activity inhibition assay (ADP-Glo)
Type: biochemical
Settings: recombinant full-length human DGKα, 55 μM ATP, 7 μM 1,2-dioleoyl-sn-glycerol, read-out: IC50 values of examples in in vitro human DGKa kinase activity inhibition assays
In short: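 Activity was measured as ADP production, detected by luciferase luminescence after removal of unused ATP. The enzyme was baculovirus-expressed full-length human DGKα with a C-terminal FLAG tag. The substrate was 1,2-dioleoyl-sn-glycerol in detergent micelles, and compounds came from 100× DMSO solutions.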

DGKα, sequence (P23743 other isoform, or with tags, fused parts or gaps): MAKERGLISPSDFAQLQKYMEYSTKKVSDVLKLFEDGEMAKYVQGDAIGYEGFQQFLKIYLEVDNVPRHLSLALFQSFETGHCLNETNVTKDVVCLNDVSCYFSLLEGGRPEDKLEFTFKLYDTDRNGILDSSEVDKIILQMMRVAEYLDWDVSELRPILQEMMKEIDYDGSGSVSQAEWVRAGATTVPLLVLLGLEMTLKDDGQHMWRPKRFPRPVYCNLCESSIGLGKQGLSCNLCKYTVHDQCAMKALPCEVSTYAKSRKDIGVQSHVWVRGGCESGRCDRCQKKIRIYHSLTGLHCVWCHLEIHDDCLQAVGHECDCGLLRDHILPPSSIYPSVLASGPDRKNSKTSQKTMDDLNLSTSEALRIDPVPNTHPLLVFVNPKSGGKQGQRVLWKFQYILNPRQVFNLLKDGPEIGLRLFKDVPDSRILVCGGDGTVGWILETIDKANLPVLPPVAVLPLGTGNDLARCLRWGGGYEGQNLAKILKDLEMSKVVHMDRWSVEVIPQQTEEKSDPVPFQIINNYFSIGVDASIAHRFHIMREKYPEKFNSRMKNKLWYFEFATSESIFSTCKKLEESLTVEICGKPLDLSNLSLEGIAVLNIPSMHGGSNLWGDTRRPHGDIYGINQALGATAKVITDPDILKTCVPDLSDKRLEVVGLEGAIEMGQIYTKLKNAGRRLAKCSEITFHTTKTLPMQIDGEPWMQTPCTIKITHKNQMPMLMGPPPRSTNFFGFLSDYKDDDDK

Cc1ccc2oc(C3CCN(c4c(C(N)=O)c(=O)n(C)c5c(Br)cccc45)CC3)nc2c1 [Example 493, 8-bromo-1-methyl-4-[4-(5-methyl-1,3-benzoxazol-2-yl)piperidin-1-yl]-2-oxo-1,2-dihydroquinoline-3-carboxamide]
IC50: 80 nM

COc1ccc2cc(C3CCN(c4c(C(N)=O)c(=O)n(C)c5ccccc45)CC3)ccc2c1 [Example 457, 4-[4-(6-methoxynaphthalen-2-yl)piperidin-1-yl]-1-methyl-2-oxo-1,2-dihydroquinoline-3-carboxamide]
IC50: 6.8 nM

COCc1ccc2oc(C3(C)CCN(c4c(C#N)c(=O)n(C)c5ccccc45)CC3)nc2c1 [Example 391, 4-{4-[5-(methoxymethyl)-1,3-benzoxazol-2-yl]-4-methylpiperidin-1-yl}-1-methyl-2-oxo-1,2-dihydroquinoline-3-carbonitrile]
IC50: 8.3 nM

Cc1ccc2c(c1)c(N1CCCC(c3nc4ccccc4o3)CC1)c(C(N)=O)c(=O)n2C (stereo not drawn) [Example 205, 4-[4-(1,3-benzoxazol-2-yl)azepan-1-yl]-1,6-dimethyl-2-oxo-1,2-dihydroquinoline-3-carboxamide]
IC50: 4.8 nM

Cc1ccc2oc(C3CCN(c4c(C#N)c(=O)n(C)c5ccc(OCC(F)F)cc45)CC3)nc2c1 [Example 407, 6-(2,2-difluoroethoxy)-1-methyl-4-[4-(5-methyl-1,3-benzoxazol-2-yl)piperidin-1-yl]-2-oxo-1,2-dihydroquinoline-3-carbonitrile]
IC50: 48 nM

COCCc1ccc2nc(C3CCN(c4c(C(N)=O)c(=O)n(C)c5ccccc45)CC3)oc2c1 [Example 317, 4-{4-[6-(2-methoxyethyl)-1,3-benzoxazol-2-yl]piperidin-1-yl}-1-methyl-2-oxo-1,2-dihydroquinoline-3-carboxamide]
IC50: 17 nM

Cc1ccc2c(c1)c(N1CCC(c3nc4cc(C(C)C)ccc4o3)CC1)c(C(N)=O)c(=O)n2C [Example 200, 1,6-dimethyl-2-oxo-4-{4-[5-(propan-2-yl)-1,3-benzoxazol-2-yl]piperidin-1-yl}-1,2-dihydroquinoline-3-carboxamide]
IC50: 3.9 nM

Cc1ccc2oc(C3(C)CCN(c4c(C#N)c(=O)n(C)c5ccc(C6CC(F)(F)C6)cc45)CC3)nc2c1 [Example 209, 6-(3,3-difluorocyclobutyl)-1-methyl-4-[4-methyl-4-(5-methyl-1,3-benzoxazol-2-yl)piperidin-1-yl]-2-oxo-1,2-dihydroquinoline-3-carbonitrile]
IC50: 26 nM

Cn1c(=O)c(C#N)c(N2CCC(c3cccc4occc34)CC2)c2ccccc21 [Example 101, 4-[4-(1-benzofuran-4-yl)piperidin-1-yl]-1-methyl-2-oxo-1,2-dihydroquinoline-3-carbonitrile]
IC50: 12 nM

CCC(C)c1ccc2c(c1)c(N1CCC(C)(c3nc4cc(C)ccc4o3)CC1)c(C#N)c(=O)n2C (stereo not drawn) [Example 211, 6-(butan-2-yl)-1-methyl-4-[4-methyl-4-(5-methyl-1,3-benzoxazol-2-yl)piperidin-1-yl]-2-oxo-1,2-dihydroquinoline-3-carbonitrile]
IC50: 456 nM

Cc1ccc2c(c1)c(N1CCCC(c3nc4ccccc4o3)CC1)c(C#N)c(=O)n2C (stereo not drawn) [Example 204, 4-[4-(1,3-benzoxazol-2-yl)azepan-1-yl]-1,6-dimethyl-2-oxo-1,2-dihydroquinoline-3-carbonitrile]
IC50: 7 nM

Cn1c(=O)c(C#N)c(N2CCC(c3cccc(NS(=O)(=O)c4ccccc4)c3)CC2)c2ccccc21 [Example 68, N-{3-[1-(3-cyano-1-methyl-2-oxo-1,2-dihydroquinolin-4-yl)piperidin-4-yl]phenyl}benzenesulfonamide]
IC50: 99 nM

Cn1c(=O)c(C#N)c(N2CCC(c3nc4ccccc4o3)CC2)c2cccc(Cl)c21 [Example 162, 4-[4-(1,3-benzoxazol-2-yl)piperidin-1-yl]-8-chloro-1-methyl-2-oxo-1,2-dihydroquinoline-3-carbonitrile]
IC50: 134 nM

COc1ccc2oc(C3CCN(c4c(C(N)=O)c(=O)n(C)c5ccccc45)CC3)nc2c1 [Example 486, 4-[4-(5-methoxy-1,3-benzoxazol-2-yl)piperidin-1-yl]-1-methyl-2-oxo-1,2-dihydroquinoline-3-carboxamide]
IC50: 5.6 nM

Cn1c(=O)c(C#N)c(N2CCC(C)(c3nc4ccccc4o3)CC2)c2ccc(C(F)(F)F)cc21 [Example 292, 4-[4-(1,3-benzoxazol-2-yl)-4-methylpiperidin-1-yl]-1-methyl-2-oxo-7-(trifluoromethyl)-1,2-dihydroquinoline-3-carbonitrile]
IC50: 3.2 nM

Cc1ccc2nc(C3CCN(c4c(C#N)c(=O)n(C)c5ccccc45)CC3)oc2c1 [Example 7, 1-methyl-4-[4-(6-methyl-1,3-benzoxazol-2-yl)piperidin-1-yl]-2-oxo-1,2-dihydroquinoline-3-carbonitrile]
IC50: 3.2 nM

Cc1ccc2oc(C3CCN(c4c(C(N)=O)c(=O)n(C)c5cc(N(C)CC#N)ccc45)CC3)nc2c1 [Example 500, 7-[(cyanomethyl)(methyl)amino]-1-methyl-4-[4-(5-methyl-1,3-benzoxazol-2-yl)piperidin-1-yl]-2-oxo-1,2-dihydroquinoline-3-carboxamide]
IC50: 0.7 nM

Cc1ccc2oc(C3(C)CCN(c4c(C#N)c(=O)n(C)c5cc(O)c(Br)cc45)CC3)nc2c1 [Example 423, 6-bromo-7-hydroxy-1-methyl-4-[4-methyl-4-(5-methyl-1,3-benzoxazol-2-yl)piperidin-1-yl]-2-oxo-1,2-dihydroquinoline-3-carbonitrile]
IC50: 1 nM

CCCOc1cccc2c(N3CCC(C)(c4nc5cc(C)ccc5o4)CC3)c(C#N)c(=O)n(C)c12 [Example 273, 1-methyl-4-[4-methyl-4-(5-methyl-1,3-benzoxazol-2-yl)piperidin-1-yl]-2-oxo-8-propoxy-1,2-dihydroquinoline-3-carbonitrile]
IC50: 119 nM

Cc1ccc2oc(C3CCN(c4c(C(N)=O)c(=O)n(C)c5cc(Cl)ccc45)CC3)nc2c1 [Example 301, 7-chloro-1-methyl-4-[4-(5-methyl-1,3-benzoxazol-2-yl)piperidin-1-yl]-2-oxo-1,2-dihydroquinoline-3-carboxamide]
IC50: 1.4 nM

Cc1ccc2nc(C3(C)CCN(c4c(C#N)c(=O)n(C)c5ccc(Cl)cc45)CC3)oc2c1 [Example 192, 6-chloro-1-methyl-4-[4-methyl-4-(6-methyl-1,3-benzoxazol-2-yl)piperidin-1-yl]-2-oxo-1,2-dihydroquinoline-3-carbonitrile]
IC50: 1360 nM

COc1ccc2c(c1)c(N1CCC(C)(c3nc4cc(C)ccc4o3)CC1)c(C#N)c(=O)n2C [Example 246, 6-methoxy-1-methyl-4-[4-methyl-4-(5-methyl-1,3-benzoxazol-2-yl)piperidin-1-yl]-2-oxo-1,2-dihydroquinoline-3-carbonitrile]
IC50: 6.5 nM

COc1ccccc1C1(O)CCN(c2c(C#N)c(=O)n(C)c3ccccc23)CC1 [Example 331, 4-[4-hydroxy-4-(2-methoxyphenyl)piperidin-1-yl]-1-methyl-2-oxo-1,2-dihydroquinoline-3-carbonitrile]
IC50: 861 nM

CC(C)Oc1ccc(C2CCN(c3c(C#N)c(=O)n(C)c4ccccc34)CC2)cc1 [Example 38, 1-methyl-2-oxo-4-(4-{4-[(propan-2-yl)oxy]phenyl}piperidin-1-yl)-1,2-dihydroquinoline-3-carbonitrile]
IC50: 1.5 nM

Cc1ccc2oc(C3CCN(c4c(C#N)c(=O)n(C)c5ccc(C#N)cc45)CC3)nc2c1 [Example 403, 1-methyl-4-[4-(5-methyl-1,3-benzoxazol-2-yl)piperidin-1-yl]-2-oxo-1,2-dihydroquinoline-3,6-dicarbonitrile]
IC50: 2 nM

Cn1c(=O)c(C#N)c(N2CCC(c3nc4cccc(F)c4o3)CC2)c2ccccc21 [Example 3, 4-[4-(7-fluoro-1,3-benzoxazol-2-yl)piperidin-1-yl]-1-methyl-2-oxo-1,2-dihydroquinoline-3-carbonitrile]
IC50: 2.6 nM

Cc1nc2cc(C3CCN(c4c(C#N)c(=O)n(C)c5ccccc45)CC3)ccc2s1 [Example 346, 1-methyl-4-[4-(2-methyl-1,3-benzothiazol-5-yl)piperidin-1-yl]-2-oxo-1,2-dihydroquinoline-3-carbonitrile]
IC50: 28 nM

Cn1c(=O)c(C#N)c(N2CCC(c3nc4cc(F)c(F)cc4o3)CC2)c2cccc(Br)c21 [Example 160, 8-bromo-4-[4-(5,6-difluoro-1,3-benzoxazol-2-yl)piperidin-1-yl]-1-methyl-2-oxo-1,2-dihydroquinoline-3-carbonitrile]
IC50: 544 nM

COc1ccc(C2CCN(c3c(C#N)c(=O)n(C)c4cc(C#N)ccc34)CC2)cc1 [Example 93, 4-[4-(4-methoxyphenyl)piperidin-1-yl]-1-methyl-2-oxo-1,2-dihydroquinoline-3,7-dicarbonitrile]
IC50: 11 nM

Cn1c(=O)c(C#N)c(N2CCC(c3ccccc3F)CC2)c2ccccc21 [Example 60, 4-[4-(2-fluorophenyl)piperidin-1-yl]-1-methyl-2-oxo-1,2-dihydroquinoline-3-carbonitrile]
IC50: 33 nM

Cc1ccc2oc(C3(C)CCN(c4c(C#N)c(=O)n(C)c5c(C)cccc45)CC3)nc2c1 [Example 263, 1,8-dimethyl-4-[4-methyl-4-(5-methyl-1,3-benzoxazol-2-yl)piperidin-1-yl]-2-oxo-1,2-dihydroquinoline-3-carbonitrile]
IC50: 42 nM

CCn1c(=O)c(C#N)c(N2CCC(c3ccc(Cl)cc3)CC2)c2ccccc21 [Example 333, 4-[4-(4-chlorophenyl)piperidin-1-yl]-1-ethyl-2-oxo-1,2-dihydroquinoline-3-carbonitrile]
IC50: 172 nM

COCCc1cccc2oc(C3CCN(c4c(C(N)=O)c(=O)n(C)c5ccccc45)CC3)nc12 [Example 315, 4-{4-[4-(2-methoxyethyl)-1,3-benzoxazol-2-yl]piperidin-1-yl}-1-methyl-2-oxo-1,2-dihydroquinoline-3-carboxamide]
IC50: 46 nM
